Patent US20160137639A1, “TRIAZOLE-ISOXAZOLE COMPOUND AND MEDICAL USE THEREOF” (JAPAN TOBACCO INC., priority 2012, published 2016)

Each compound was assayed against T1, human RORγ (Homo sapiens, UniProt P51449) (assay: Luciferase reporter gene assay of inhibitory effect against RORγ transcriptional activity (GAL4-hRORγ plasmid in CHO cells)). Conditions: read-out: LUC EC50 (μM) hRORg.
T1 construct: human, NM_005060.3 and from Ser253 to Lys518; expressed in transfected cells; host or cells: CHO cells (transient co-transfection with pG5-Luc reporter)
T1 sequence (P51449 253-518): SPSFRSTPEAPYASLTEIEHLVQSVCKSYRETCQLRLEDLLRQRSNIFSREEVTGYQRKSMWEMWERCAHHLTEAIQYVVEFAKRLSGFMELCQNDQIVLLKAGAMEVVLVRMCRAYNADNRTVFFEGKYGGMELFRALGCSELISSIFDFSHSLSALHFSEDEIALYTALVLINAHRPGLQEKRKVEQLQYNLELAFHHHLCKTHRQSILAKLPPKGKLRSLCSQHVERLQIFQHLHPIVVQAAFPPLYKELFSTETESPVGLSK
Type: cell-based
For `CNC(=O)C(C)(C)CCCc1nnc(CCC(=O)Nc2cccc(Cl)c2C)n1C1CC1` [Example F-237], the EC50 was greater than 3 µM. Compound `Cc1c(F)cccc1CNC(=O)CCc1nnc(CCC(C)C)n1C1CC1` [Example F-126] has an EC50 greater than 3 µM. With `CC(=O)N1C[C@H](C(=O)Nc2ccc(C)cc2C)[C@@H](c2nnc([C@H]3CC[C@H](C(C)C)CC3)n2C2CC2)C1` (racemic) [Example F-300] the EC50 was less than 3 µM. With `COc1ccc(C)c(NC(=O)CCc2nnc(CCC(C)C)n2C2CC2)c1` [Example F-92] the EC50 was greater than 3 µM. With `CCn1c(CCC(=O)Nc2cc(C)cc(C)c2)nnc1CCC1CCCC1` [Example F-49] the EC50 was greater than 3 µM. For `CC(C)CCc1nnc(CCC(=O)Nc2nnc3ccccn23)n1C1CC1` [Example F-139], the EC50 was greater than 3 µM. With `Cc1ccc(NC(=O)C[C@H](CCC(=O)O)c2noc(-c3cc(CCC(C)C)on3)c2C(F)(F)F)c(Cl)c1` [Example E-16] the EC50 was less than 3 µM. `Cc1ccc(NC(=O)C[C@H](CCC(=O)O)c2noc(-c3ccc(CC(C)C)o3)c2C2CC2)c(Cl)c1` [Example E-28] showed an EC50 of less than 3 µM.

Same assay, conditions: read-out: LUC EC50 hRORg
With `Cc1ccc(NC(=O)C[C@H](C[C@H](C)O)c2nnc([C@H]3C[C@@H](CC(C)C)C3)n2C2CC2)c(C)c1` [Example F-574] the EC50 was less than 3 µM. `Cc1ccc(NC(=O)C[C@H](CC(C)(C)O)c2nnc([C@H]3C[C@@H](CC(C)C)C3)n2C2CC2)c(C)c1` [Example F-599] was tested, and the EC50 was less than 3 µM. `CC(C)C[C@H]1C[C@@H](c2nnc([C@@H](CCO)CC(=O)NCc3ccc(Cl)cc3Cl)n2C2CC2)C1` [Example F-521] showed an EC50 of less than 3 µM. Work on `COc1cc(NC(=O)C[C@H](CCO)c2nnc([C@H]3C[C@@H](CC(C)C)C3)n2C2CC2)ccc1Cl` [Example F-520] yielded an EC50 of less than 3 µM. For `Cc1ccc(NC(=O)C[C@H](CC(O)C(F)(F)F)c2nnc([C@H]3C[C@@H](CC(C)C)C3)n2C2CC2)c(C)c1` (single isomer, unassigned) [Example F-621], the EC50 was less than 3 µM. Compound `Cc1ccc(NC(=O)[C@H]2CC(C)(O)C[C@@H]2c2nnc([C@H]3C[C@@H](CC(C)C)C3)n2C2CC2)c(C)c1` (single isomer, unassigned) [Example F-562] has an EC50 of less than 3 µM. `Cc1ccc(NC(=O)C[C@H](CCCO)c2nnc([C@H]3C[C@@H](CC(C)C)C3)n2C2CC2)c(C)c1` [Example F-511] showed an EC50 of less than 3 µM. For `Cc1ccc(NC(=O)CCc2cc([C@H]3C[C@@H](CC(C)(C)C)C3)on2)c(Cl)c1` [Example F-733], the EC50 was less than 3 µM. Work on `CC(C)(CO)C[C@H]1C[C@@H](c2onc([C@@H](CCC(=O)O)CC(=O)Nc3ccc(CO)cc3Cl)c2C2CC2)C1` [Example F-726] yielded an EC50 greater than 3 µM. `Cc1ccc(NC(=O)C[C@@H](c2nnc([C@H]3C[C@@H](CC(C)C)C3)n2C2CC2)N(C)CCO)c(C)c1` [Example F-544] showed an EC50 of less than 3 µM. Compound `Cc1ccc(NC(=O)C[C@@H](CC(C)(C)O)c2nnc([C@H]3C[C@@H](CC(C)C)C3)n2C2CC2)c(C)c1` [Example F-598] has an EC50 greater than 3 µM. `Cc1ccc(NC(=O)[C@H]2CN(C)CC[C@@H]2c2nnc([C@H]3C[C@@H](CC(C)C)C3)n2C2CC2)c(C)c1` (racemic) [Example F-583] showed an EC50 of less than 3 µM. Work on `Cc1ccc(NC(=O)CC(c2nnc([C@H]3C[C@@H](CC(C)C)C3)n2C2CC2)C(F)(F)CO)c(C)c1` (mixture of isomers) [Example F-617] yielded an EC50 of less than 3 µM. `Cc1ccc(NC(=O)[C@H]2CC(O)(C(F)(F)F)C[C@@H]2c2nnc([C@H]3C[C@@H](CC(C)C)C3)n2C2CC2)c(C)c1` (mixture of isomers) [Example F-545] showed an EC50 of less than 3 µM. `Cc1ccc(NC(=O)C[C@H](CC(C)C)c2nnc([C@H]3C[C@@H](CC(C)C)C3)n2C2CC2)c(C)c1` [Example F-590] gave an EC50 of less than 3 µM. With `Cc1cc(Cl)ccc1NC(=O)C[C@H](CC(C)C)c1nnc(-c2cc(CCC(C)C)on2)n1C1CC1` [Example F-628] the EC50 was less than 3 µM. Compound `Cc1ccc(NC(=O)[C@H]2CN(S(=O)(=O)CC(F)(F)F)C[C@@H]2c2nnc([C@H]3C[C@@H](CC(C)(C)C)C3)n2C2CC2)c(C)c1` [Example F-559] has an EC50 of less than 3 µM.

Each compound was assayed against T2, mouse RORγ (Mus musculus, UniProt P51450) (assay: Luciferase reporter gene assay of inhibitory effect against RORγ transcriptional activity (GAL4-mRORγ plasmid in CHO cells)). Conditions: read-out: LUC EC50 (μM) mRORg.
T2 construct: mouse, NM_011281.2 and from Ile251 to Lys516; expressed in transfected cells; host or cells: CHO cells (transient co-transfection with pG5-Luc reporter)
T2 sequence (P51450 251-516): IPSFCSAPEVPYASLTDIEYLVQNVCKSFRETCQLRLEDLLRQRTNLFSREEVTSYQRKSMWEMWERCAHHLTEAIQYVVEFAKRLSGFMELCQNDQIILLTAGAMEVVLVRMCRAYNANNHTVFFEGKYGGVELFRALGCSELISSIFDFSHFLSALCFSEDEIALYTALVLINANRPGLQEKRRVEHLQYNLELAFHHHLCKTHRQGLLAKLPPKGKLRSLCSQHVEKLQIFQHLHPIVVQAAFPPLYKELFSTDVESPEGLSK
Type: cell-based
In short: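 Readout is intracellular luciferase after 2-day compound exposure (8 concentrations, 0.1% DMSO) in CHO cells expressing GAL4 fused to mouse RORγ LBD residues Ile251–Lys516 plus pG5-Luc reporter. EC50 fitted from %-of-control; points showing resazurin-detected cytotoxicity dropped.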
Work on `CNC(=O)C(C)(C)CCCc1nnc(CCC(=O)Nc2cccc(Cl)c2C)n1C1CC1` [Example F-237] yielded an EC50 greater than 3 µM. Work on `Cc1c(F)cccc1CNC(=O)CCc1nnc(CCC(C)C)n1C1CC1` [Example F-126] yielded an EC50 greater than 3 µM. `CC(=O)N1C[C@H](C(=O)Nc2ccc(C)cc2C)[C@@H](c2nnc([C@H]3CC[C@H](C(C)C)CC3)n2C2CC2)C1` (racemic) [Example F-300] gave an EC50 of less than 3 µM. For `COc1ccc(C)c(NC(=O)CCc2nnc(CCC(C)C)n2C2CC2)c1` [Example F-92], the EC50 was greater than 3 µM. For `CCn1c(CCC(=O)Nc2cc(C)cc(C)c2)nnc1CCC1CCCC1` [Example F-49], the EC50 was greater than 3 µM. With `CC(C)CCc1nnc(CCC(=O)Nc2nnc3ccccn23)n1C1CC1` [Example F-139] the EC50 was greater than 3 µM. `Cc1ccc(NC(=O)C[C@H](CCC(=O)O)c2noc(-c3cc(CCC(C)C)on3)c2C(F)(F)F)c(Cl)c1` [Example E-16] gave an EC50 of less than 3 µM. With `Cc1ccc(NC(=O)C[C@H](CCC(=O)O)c2noc(-c3ccc(CC(C)C)o3)c2C2CC2)c(Cl)c1` [Example E-28] the EC50 was less than 3 µM.

Same assay, conditions: read-out: LUC EC50 mRORg
For `Cc1ccc(NC(=O)C[C@H](C[C@H](C)O)c2nnc([C@H]3C[C@@H](CC(C)C)C3)n2C2CC2)c(C)c1` [Example F-574], the EC50 was less than 3 µM. `Cc1ccc(NC(=O)C[C@H](CC(C)(C)O)c2nnc([C@H]3C[C@@H](CC(C)C)C3)n2C2CC2)c(C)c1` [Example F-599] was tested, and the EC50 was less than 3 µM. `CC(C)C[C@H]1C[C@@H](c2nnc([C@@H](CCO)CC(=O)NCc3ccc(Cl)cc3Cl)n2C2CC2)C1` [Example F-521] gave an EC50 of less than 3 µM. `COc1cc(NC(=O)C[C@H](CCO)c2nnc([C@H]3C[C@@H](CC(C)C)C3)n2C2CC2)ccc1Cl` [Example F-520] was tested, and the EC50 was less than 3 µM. `Cc1ccc(NC(=O)C[C@H](CC(O)C(F)(F)F)c2nnc([C@H]3C[C@@H](CC(C)C)C3)n2C2CC2)c(C)c1` (single isomer, unassigned) [Example F-621] was tested, and the EC50 was less than 3 µM. `Cc1ccc(NC(=O)[C@H]2CC(C)(O)C[C@@H]2c2nnc([C@H]3C[C@@H](CC(C)C)C3)n2C2CC2)c(C)c1` (single isomer, unassigned) [Example F-562] gave an EC50 of less than 3 µM. Compound `Cc1ccc(NC(=O)C[C@H](CCCO)c2nnc([C@H]3C[C@@H](CC(C)C)C3)n2C2CC2)c(C)c1` [Example F-511] has an EC50 of less than 3 µM. With `Cc1ccc(NC(=O)CCc2cc([C@H]3C[C@@H](CC(C)(C)C)C3)on2)c(Cl)c1` [Example F-733] the EC50 was less than 3 µM. Compound `CC(C)(CO)C[C@H]1C[C@@H](c2onc([C@@H](CCC(=O)O)CC(=O)Nc3ccc(CO)cc3Cl)c2C2CC2)C1` [Example F-726] has an EC50 greater than 3 µM. `Cc1ccc(NC(=O)C[C@@H](c2nnc([C@H]3C[C@@H](CC(C)C)C3)n2C2CC2)N(C)CCO)c(C)c1` [Example F-544] gave an EC50 of less than 3 µM. `Cc1ccc(NC(=O)C[C@@H](CC(C)(C)O)c2nnc([C@H]3C[C@@H](CC(C)C)C3)n2C2CC2)c(C)c1` [Example F-598] was tested, and the EC50 was greater than 3 µM. For `Cc1ccc(NC(=O)[C@H]2CN(C)CC[C@@H]2c2nnc([C@H]3C[C@@H](CC(C)C)C3)n2C2CC2)c(C)c1` (racemic) [Example F-583], the EC50 was less than 3 µM. In the case of `Cc1ccc(NC(=O)CC(c2nnc([C@H]3C[C@@H](CC(C)C)C3)n2C2CC2)C(F)(F)CO)c(C)c1` (mixture of isomers) [Example F-617], the EC50 is reported as less than 3 µM. Work on `Cc1ccc(NC(=O)[C@H]2CC(O)(C(F)(F)F)C[C@@H]2c2nnc([C@H]3C[C@@H](CC(C)C)C3)n2C2CC2)c(C)c1` (mixture of isomers) [Example F-545] yielded an EC50 of less than 3 µM. `Cc1ccc(NC(=O)C[C@H](CC(C)C)c2nnc([C@H]3C[C@@H](CC(C)C)C3)n2C2CC2)c(C)c1` [Example F-590] gave an EC50 of less than 3 µM. `Cc1cc(Cl)ccc1NC(=O)C[C@H](CC(C)C)c1nnc(-c2cc(CCC(C)C)on2)n1C1CC1` [Example F-628] was tested, and the EC50 was less than 3 µM. For `Cc1ccc(NC(=O)[C@H]2CN(S(=O)(=O)CC(F)(F)F)C[C@@H]2c2nnc([C@H]3C[C@@H](CC(C)(C)C)C3)n2C2CC2)c(C)c1` [Example F-559], the EC50 was less than 3 µM.
